In this experiment the target is Serine/threonine-protein kinase B-raf [V600E] (Homo sapiens, UniProt P15056, V600E). Description: BRAF V600E Enzyme Assay. Here is the method:
A competitive displacement assay was configured for B-Raf that monitors the amount of a fluorescently-tagged “tracer” bound to B-Raf via TR-FRET from an anti-tag Eu-labeled antibody also bound to B-Raf. For full-length FLAG-tagged B-Raf(V600E), the assay mixtures consisted of 25 mM K+HEPES, pH 7.4, 10 mM MgCl2, 0.01% Triton X-100, 1 mM DTT, 2% DMSO (from compound), 50 nM Tracer 1710 (ThermoFisher, PR9176A), 0.5 nM Eu anti-FLAG (M2)-cryptate Ab (Cisbio, 61FG2KLB) and 5 nM full-length, N-terminally FLAG-tagged B-Raf(V600E) (Origene Technologies, TP700031. Compounds were typically diluted in DMSO across an 11-point dosing range created using a 3-fold serial dilution protocol at a top dose of 10 μM. The assay was run in 384-well, polystyrene, low-volume, non-treated, white microtiter plates (Costar 4512) in a final volume of 12 μL. Low control wells included 1 μM of a potent B-Raf inhibitor as a control. The assays were incubated at ambient temperature (typically 22° C.) for 60 min and then read on a PerkinElmer EnVision microplate reader using standard TRF settings (λEx=320 nm, λEm=615 & 665 nm).
Sequence of Serine/threonine-protein kinase B-raf [V600E] (P15056 2-766 V600E limits assumed): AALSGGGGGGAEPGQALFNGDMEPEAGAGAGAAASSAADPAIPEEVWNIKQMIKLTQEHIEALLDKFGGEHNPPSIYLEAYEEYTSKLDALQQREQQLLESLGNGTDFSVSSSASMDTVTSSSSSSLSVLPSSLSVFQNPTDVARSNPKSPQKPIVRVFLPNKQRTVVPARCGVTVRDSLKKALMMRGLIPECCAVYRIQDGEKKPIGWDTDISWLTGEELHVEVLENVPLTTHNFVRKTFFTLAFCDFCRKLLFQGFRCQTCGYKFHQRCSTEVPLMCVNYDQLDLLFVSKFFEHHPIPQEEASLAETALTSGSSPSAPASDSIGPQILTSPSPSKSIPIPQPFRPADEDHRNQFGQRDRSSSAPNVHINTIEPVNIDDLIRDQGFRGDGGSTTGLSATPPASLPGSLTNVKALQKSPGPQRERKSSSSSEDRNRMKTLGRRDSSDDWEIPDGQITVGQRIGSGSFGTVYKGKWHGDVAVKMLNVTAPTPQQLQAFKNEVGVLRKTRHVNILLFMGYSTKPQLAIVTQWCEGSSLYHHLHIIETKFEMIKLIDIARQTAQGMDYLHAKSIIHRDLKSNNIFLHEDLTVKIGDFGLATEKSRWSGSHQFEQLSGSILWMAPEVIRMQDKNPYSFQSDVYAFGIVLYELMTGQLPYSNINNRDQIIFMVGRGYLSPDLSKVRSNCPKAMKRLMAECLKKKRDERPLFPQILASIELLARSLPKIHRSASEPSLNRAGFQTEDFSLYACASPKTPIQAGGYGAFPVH
By IC50 is commonly meant the concentration at which inhibition is half-maximal. A low value points to greater potency. Consider `Cn1cnc2ccc(Nc3c(F)ccc(NS(=O)(=O)N4CC(OC(F)F)C4)c3Cl)c(Cl)c2c1=O` [US12303509, Example 143], for which half-maximal inhibition (IC50) was put at 8 nM.
In the case of `Cc1c(Nc2c(F)ccc(NS(=O)(=O)N3CC4(CCC4)C3)c2Cl)ccc2ncn(C)c(=O)c12` [US12303509, Example 157] it was 29 nM; in that of `Cc1c(Nc2c(F)ccc(NS(=O)(=O)N3CC(C)(F)C3)c2Cl)ccc2ncn(C)c(=O)c12` [US12303509, Example 155], 7 nM.

The values are drawn from BindingDB's records for patent US12303509 (Pfizer, 2025).
